Experimental data: patent US20240027435A1, “METHOD AND KIT FOR LABELING EUKARYOTIC CELLS FROM A MULTICELLULAR ORGANISM USING MODIFIED MONOSACCHARIDE COMPOUNDS AND PHARMACEUTICAL COMPOSITION COMPRISING SUCH CELLS” (THERAONCO, priority 2020, published 2024)

Tests used:
Type in all cases: cell-based, Human
PANC = experiment: Labelling of cells, fluorescence cancer/non cancer ratio: PANC vs HPNE; conditions: fluorescence signal ratio; PANC (Pancreas, Pancreatic carcinoma) vs HPNE; one doubling time (32 h)
Description: (§1) The cell lines were grown in suitable medium, supplemented by 10% fetal bovine serum (FBS) (VWR international S.A.S). The culture medium was changed every two days. The passaging of cells was performed using Tryp-LE express 1× (Gibco). The cell viability was estimated using trypan blue exclusion tests.
(§2) Cells were seeded in 24-well plates, at a density of 5×10^4 cells/well. Then, cells were incubated at 37° C., 5% CO2, during 24 hours. The culture media were adapted to the tested cells and supplemented by 10% fetal bovine serum (FBS). The incubation time corresponded to one doubling time of the tested cells. The fluorescence signal cancer/non cancer ratios were calculated based on fluorescence intensities obtained with Xylose-N3 or Ribose-N3 tested on cancer and corresponding non cancer cells.
(§3) The fluorescence assimilation of Xylose-N3 or Ribose-N3 probes was visualized by copper-free click chemistry using sulfo-DBCO-biotin (1 mM), followed by labeling with a mouse anti-biotin Alexa Fluor 488 antibody conjugate (0.62 mg/ml stock, Jackson ImmunoResearch, dilution 1/10). […]
(§4) The fluorescence acquisition was recorded using Olympus Microscopy IX83 (Olympus Life Science) equipped with a 60×/1.3 […]/1.4 SRI (silicone refractive index) objective, and Hamamatsu oreca flash 4 LT camera with 109 nm/pixel calibrated pixel size. […]

HT29 = experiment: Labelling of cells, fluorescence cancer/non cancer ratio: HT29 vs Colon epithelial cell; conditions: fluorescence signal ratio; HT29 (colon, Colorectal adenocarcinoma) vs Colon epithelial cell; one doubling time (40 h)
Description: as §1, §2, §3, §4

BL-2 = experiment: Labelling of cells, fluorescence cancer/non cancer ratio: BL-2 vs Isolated primary B cells; conditions: fluorescence signal ratio; BL-2 (Blood, non-endemic Burkitt lymphoma, 24 h) vs Isolated primary B cells
Description: as §1, §2, §3, §4

MDA-MB-231 = experiment: Labelling of cells, fluorescence cancer/non cancer ratio: MDA-MB-231 vs Breast epithelial cell; conditions: fluorescence signal ratio; MDA-MB-231 (Breast adenocarcinoma) vs Breast epithelial cell; one doubling time (40 h)
Description: as §1, §2, §3, §4

OCI-Ly3 = experiment: Labelling of cells, fluorescence cancer/non cancer ratio: OCI-Ly3 vs Isolated primary B cells; conditions: fluorescence signal ratio; OCI-Ly3 (Blood, Diffuse large B-cell lymphoma, 24 h) vs Isolated primary B cells
Description: as §1, §2, §3, §4

A431 = experiment: Labelling of cells, fluorescence cancer/non cancer ratio: A431 vs Hacat; conditions: fluorescence signal ratio; A431 (Skin, Epidermoid carcinoma) vs Hacat; one doubling time (30 h)
Description: as §1, §2, §3, §4

THP1 = experiment: Labelling of cells with azido-monosaccharide probe, fluorescence cancer/non cancer ratio: THP1 vs Monocytes/Macrophages; conditions: fluorescence signal ratio; THP1 (Blood, monocytic acute leukemia) vs Monocytes/Macrophages; incubation one doubling time (26 h)
Description: as §1, §2, §3, §4

KCL22 = experiment: Labelling of cells, fluorescence cancer/non cancer ratio: KCL22 vs Lymphocytes; conditions: fluorescence signal ratio; KCL22 (Blood, chronic myelogenous leukemia) vs Lymphocytes; one doubling time (24 h)
Description: as §1, §2, §3, §4

DOHH-2 = experiment: Labelling of cells, fluorescence cancer/non cancer ratio: DOHH-2 vs Isolated primary B cells; conditions: fluorescence signal ratio; DOHH-2 (Blood, Diffuse large B-cell lymphoma germinal center B-cell type, 40-48 h) vs Isolated primary B cells
Description: as §1, §2, §3, §4

Kasumi-1 = experiment: Labelling of cells, fluorescence cancer/non cancer ratio: Kasumi-1 vs B12-F8; conditions: fluorescence signal ratio; Kasumi-1 (Blood, Acute Myeloid Leukemia, 48 h) vs B12-F8 (24 h); one doubling time
Description: as §1, §2, §3, §4

AGS = experiment: Labelling of cells, fluorescence cancer/non cancer ratio: AGS vs Stomach epitelial cell; conditions: fluorescence signal ratio; AGS (Stomach, Gastric adenocarcinoma) vs Stomach epitelial cell; one doubling time (30 h)
Description: as §1, §2, §3, §4

MDA MB175 = experiment: Labelling of cells, fluorescence cancer/non cancer ratio: MDA MB175 vs HME-1; conditions: fluorescence signal ratio; MDA MB175 (Breast cancer) vs HME-1; one doubling time (30 h)
Description: as §1, §2, §3, §4

K562 = experiment: Labelling of cells, fluorescence cancer/non cancer ratio: K562 vs Lymphocytes T; conditions: fluorescence signal ratio; K562 (Blood, Chronic Myeloid Leukemia) vs Lymphocytes T; one doubling time (24 h)
Description: as §1, §2, §3, §4

A549 = experiment: Labelling of cells, fluorescence cancer/non cancer ratio: A549 vs Bronchial epithelial cell; conditions: fluorescence signal ratio; A549 (Lung, Carcinoma) vs Bronchial epithelial cell; one doubling time (40 h)
Description: as §1, §2, §3, §4

In the case of [N-]=[N+]=NC[C@@H](O)[C@H](O)[C@@H](O)C=O [Xylose-N3, 5-azido-5-deoxy-xylose], the “Cancer/Non Cancer Ratio” value (PANC) is reported as 3, the “Cancer/Non Cancer Ratio” value (HT29) is reported as 8 and the “Cancer/Non Cancer Ratio” value (BL-2) is reported as 2. For the same molecule, the “Cancer/Non Cancer Ratio” value (MDA-MB-231) was 4, the “Cancer/Non Cancer Ratio” value (OCI-Ly3) was 9 and the “Cancer/Non Cancer Ratio” value (A431) was 12. The “Cancer/Non Cancer Ratio” value (THP1) was 25, the “Cancer/Non Cancer Ratio” value (KCL22) was 7 and the “Cancer/Non Cancer Ratio” value (DOHH-2) was 12. The “Cancer/Non Cancer Ratio” value (Kasumi-1) was 2, the “Cancer/Non Cancer Ratio” value (AGS) was 2 and the “Cancer/Non Cancer Ratio” value (MDA MB175) was 3. For the same molecule, the “Cancer/Non Cancer Ratio” value (K562) was 5 and the “Cancer/Non Cancer Ratio” value (A549) was 10.
